Reference: patent US20100167275A1, “Potassium channel mutants of the yeast Saccharomyces cerevisiae and their use for screening eukaryotic potassium channels” (sanofi-aventis Deutschland GmbH, priority 2000, published 2010)
Several values for one entry are separate records, joined by “and”; a condition that tells them apart may be missing. Equal values may be shown once.

What was measured:
[1] = tested on: triple mutant Δtrk1Δtrk2Δtok1 with p423GPD; experiment: Growth of triple mutant Δtrk1Δtrk2Δtok1 with blank vector p423GPD (YM194), OD 620 nm; format: cell-based, Saccharomyces cerevisiae; settings: 2 mM RbCl; DPM-HIS 5 mM KCl, pH 6.5, 24 hours growth, starting OD 0.01
Method: The cell density was measured after 24 hours' growth (density of the starter culture: 0.01 OD620) via determination of the optical density at a wavelength of 620 nm. The values corresponded to the average of in each case 4 measurements±SD.

[2] = molecular target: T1, human potassium channel ROMK2 (Homo sapiens, UniProt P48048); experiment: Growth of triple mutant Δtrk1Δtrk2Δtok1 expressing ROMK2 (YM256), OD 620 nm; format: cell-based; settings: 2 mM RbCl
T1 construct: expressed in transfected cells; host or cells: Saccharomyces cerevisiae Δtrk1Δtrk2Δtok1, strain YM256, vector p423GPD
T1 sequence (P48048 1-372 isoform P48048-2): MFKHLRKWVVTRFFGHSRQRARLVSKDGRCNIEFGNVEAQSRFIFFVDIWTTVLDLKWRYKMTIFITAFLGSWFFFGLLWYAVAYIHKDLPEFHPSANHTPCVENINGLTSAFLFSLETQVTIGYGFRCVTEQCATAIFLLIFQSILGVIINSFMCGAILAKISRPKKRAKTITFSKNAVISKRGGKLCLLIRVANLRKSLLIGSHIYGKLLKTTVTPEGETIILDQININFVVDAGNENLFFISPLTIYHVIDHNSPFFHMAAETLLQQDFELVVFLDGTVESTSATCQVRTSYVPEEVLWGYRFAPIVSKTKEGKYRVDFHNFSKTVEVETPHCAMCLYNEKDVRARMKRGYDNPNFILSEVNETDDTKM
Excerpt: The human potassium channel ROMK2 ((Shuck, M. E. et al., 1994; Bock, J. H. et al., 1997); Sequence SEQ ID NO. 31 hROMK2) was subcloned into the yeast vector p423GPD and transformed into the triple mutant Δtrk1Δtrk2Δtok1.

human Kv1.5 channel = molecular target: T2, human Kv1.5 channel (Homo sapiens, UniProt P22460, DEL187-187/DEL55-55/P188G/P307A/R154P); experiment: Complementation of growth deficiency by Kv1.5 in the presence of activators; format: cell-based; settings: 2 mM RbCl; culture plates, DPM 5 mM KCl pH 6.5; FIG. 3
T2 construct: expressed in transfected cells; host or cells: Saccharomyces cerevisiae Δtrk1 Δtrk2 Δtok1 (YM195; also Δtrk1 Δtrk2 YM190), vector p423-GPD3
Excerpt: Each of the strains YM168 (Δtrk1 Δtrk2) and YM182 (Δtrk1 Δtrk2 Δtok1) was transformed with the human potassium channels Kv1.5 ((Fedida, D. et al, 1998); YM190 and YM195) and HERG1 ((Fedida, D. et al., 1998); YM191 and YM196) in p423-GPD3, respectively, as yeast expression vector. gpIRK1 ((Tang, W. et al., 1995); YM193 and YM198) acted as positive control in p423-GPD3 as yeast expression vector (Mumberg, D. et al., 1995; Ronicke, V. et al., 1997). The blank vector p423-GPD3 (YM189 and YM194) acted as negative control. The transformed yeast strains were plated onto (−)HIS/80 mM KCl medium. After this, patches of single colonies were replica-plated onto DPM/5 mM KCl (pH 6.5) to check the capacity of complementing the potassium deficiency.
Kv1.5: Rb^+ extends the hyperpolarization phase. This means that the inwardly directed K^+ flux is more prolonged and increases the possibility of complementing the growth deficiency.
The yeast strains YM 194 and YM 195 were tested in DPM/-HIS/5 mM KCl with 1 mM RbCl for the different growth behavior in liquid medium. To this end, 10 ml of overnight culture were set up in DPM/-HIS/80 mM KCl and, next morning, brought to an OD600 of 0.05 with the relevant media (final volume: 20 ml). The optical density at 600 nm was determined at defined intervals with the aid of a photometer.

[3] = molecular target: human potassium channel HERG1 (Homo sapiens, UniProt Q12809)
Method: FIG. 7: Expression of the human potassium channel HERG1 in the triple mutant Δtrk1Δtrk2Δtok1 in DPM-HIS/-TRP 5 mM KCl medium in 96-well ELISA plates in the presence of 0.5 mM CsCl as activator.
(§1) The various inhibitors were employed at a final concentration of in each case 30 μM. To measure the cell density, a commercially available LacZ reporter system pYX232 by Ingenius (cat. No. MBV-032-10) was transformed into the yeast strains to be studied. Expression of the LacZ reporter gene was under the control of the constitutive Saccharomyces cerevisiae promotor TPI for the triose phosphate isomerase gene. The LacZ enzyme activity was measured via detecting the luminescence after 24 hours' growth (density of the starter culture: 0.01 OD620) using a commercially available assay system by TROPIX. The values correspond to the average of in each case 4 measurements±SD. The two different assays were carried out independently of each other on two different days.
FIG. 8: Expression of the human potassium channel HERG1 in the triple mutant Δtrk1Δtrk2Δtok1 in DPM-HIS 5 mM KCl medium in 96-well ELISA plates in the presence of 0.5 mM CsCl as activator.
The various inhibitors were employed at a final concentration of in each case 30 μM. The cell density was measured after 38 hours' growth (density of the starter culture: 0.03 OD620) via determination of the optical density at a wavelength of 620 nm. The values corresponded to the average of in each case 4 measurements±SD.
All growth assays in the triple mutant Δtrk1Δtrk2Δtok1 were carried out in growth medium DPM (defined potassium medium) at the pH and the potassium concentration stated in each case.
(§2) All substances, dissolved in DMSO, were employed in a final concentration of 30 μM. As a control, cells were measured with the same final concentration of 0.5% DMSO without substance, without DMSO addition or without substance.

[4] = tested on: Saccharomyces cerevisiae wild-type strain; format: cell-based
Method: as §1, with “FIG. 9: Growth of the Saccharomyces cerevisiae wild-type strain in DPM-HIS/-TRP 5 mM KCl medium in 96-well ELISA plates in the presence of 0.5 mM CsCl. The various” for “The various”, “by TROPIX.” for “by TROPIX. The values correspond to the average of in each case 4 measurements±SD. The two different assays were carried out independently of each other on two different days.”
The values correspond to the average of in each case 4 measurements±SD. The two different assays were carried out independently of each other on two different days.
as §2

[5] = tested on: Saccharomyces cerevisiae wild-type strain; experiment: Growth of wild-type strain in DPM medium with 5 mM or 80 mM KCl, OD 620 nm; format: cell-based; settings: 30 μM
Excerpt: However, the present results could not exclude that the inhibitory effect found for these substances can possibly also be attributed to an inhibition of other proteins which are essential for the growth of yeast cells. […]

[6] = 30 μM, wild-type cells, DPM -HIS/-TRP, 0.5 mM CsCl, 24 hours growth, TROPIX kit, ASSAY 1
[7] = 30 μM, wild-type cells, DPM -HIS/-TRP, 0.5 mM CsCl, 24 hours growth, TROPIX kit, ASSAY 2
[8] = wild-type cells, DPM, 5 mM KCl, 24 hours growth, starting culture 0.01 OD
[9] = wild-type cells, DPM, 80 mM KCl, 24 hours growth, starting culture 0.01 OD

Sequence of human potassium channel HERG1 (Q12809 whole entry): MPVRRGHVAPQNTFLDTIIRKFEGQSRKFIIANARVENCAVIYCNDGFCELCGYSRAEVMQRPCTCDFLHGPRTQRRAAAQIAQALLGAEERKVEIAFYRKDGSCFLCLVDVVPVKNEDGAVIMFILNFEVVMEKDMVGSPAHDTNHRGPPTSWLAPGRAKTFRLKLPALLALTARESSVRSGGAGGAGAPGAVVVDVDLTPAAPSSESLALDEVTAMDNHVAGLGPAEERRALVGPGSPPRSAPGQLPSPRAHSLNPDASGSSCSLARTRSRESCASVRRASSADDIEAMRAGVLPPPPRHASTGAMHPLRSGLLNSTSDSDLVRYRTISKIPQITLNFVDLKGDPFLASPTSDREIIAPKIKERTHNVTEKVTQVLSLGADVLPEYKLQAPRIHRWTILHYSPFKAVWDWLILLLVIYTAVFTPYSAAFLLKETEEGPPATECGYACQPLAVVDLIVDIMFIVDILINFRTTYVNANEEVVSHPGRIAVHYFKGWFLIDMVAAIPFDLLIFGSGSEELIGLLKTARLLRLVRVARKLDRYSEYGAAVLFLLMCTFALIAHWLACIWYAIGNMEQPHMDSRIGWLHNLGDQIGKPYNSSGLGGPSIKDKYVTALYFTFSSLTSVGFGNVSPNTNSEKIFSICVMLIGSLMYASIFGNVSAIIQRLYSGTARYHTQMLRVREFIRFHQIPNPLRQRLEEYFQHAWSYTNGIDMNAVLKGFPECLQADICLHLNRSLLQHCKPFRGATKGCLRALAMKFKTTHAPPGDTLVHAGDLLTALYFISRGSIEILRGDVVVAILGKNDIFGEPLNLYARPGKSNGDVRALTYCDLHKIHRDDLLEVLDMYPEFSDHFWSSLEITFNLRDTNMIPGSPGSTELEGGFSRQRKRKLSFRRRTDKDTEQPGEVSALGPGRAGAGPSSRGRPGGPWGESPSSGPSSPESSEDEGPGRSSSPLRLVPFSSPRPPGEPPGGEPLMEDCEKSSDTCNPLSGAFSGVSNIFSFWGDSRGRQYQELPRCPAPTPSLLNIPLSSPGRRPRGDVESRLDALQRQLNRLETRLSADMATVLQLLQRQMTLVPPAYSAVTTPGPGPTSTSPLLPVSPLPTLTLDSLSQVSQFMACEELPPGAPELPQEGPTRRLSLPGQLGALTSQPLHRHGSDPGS
T2 sequence (P22460 with tags, fused parts or gaps DEL55-55/R154P/DEL187-187/P188G/P307A): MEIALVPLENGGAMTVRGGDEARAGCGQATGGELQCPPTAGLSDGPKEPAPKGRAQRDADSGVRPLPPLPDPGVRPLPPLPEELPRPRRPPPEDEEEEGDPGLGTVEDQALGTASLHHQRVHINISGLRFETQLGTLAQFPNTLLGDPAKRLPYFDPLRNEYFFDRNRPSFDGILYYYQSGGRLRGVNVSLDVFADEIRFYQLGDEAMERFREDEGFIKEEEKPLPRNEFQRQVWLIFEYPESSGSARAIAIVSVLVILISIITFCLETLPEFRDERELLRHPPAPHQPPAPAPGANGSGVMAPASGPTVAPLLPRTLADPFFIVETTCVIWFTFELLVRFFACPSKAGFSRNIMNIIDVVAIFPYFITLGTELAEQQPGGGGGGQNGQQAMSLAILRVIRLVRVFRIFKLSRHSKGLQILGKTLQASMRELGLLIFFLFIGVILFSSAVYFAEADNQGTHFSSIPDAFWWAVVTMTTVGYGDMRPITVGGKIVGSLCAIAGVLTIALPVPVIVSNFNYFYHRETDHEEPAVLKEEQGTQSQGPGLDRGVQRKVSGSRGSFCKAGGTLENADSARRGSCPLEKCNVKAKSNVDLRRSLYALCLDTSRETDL

SMILES: [Cl-].[Rb+] [RbCl]
- 194 (average growth of p423GPD strain YM194, OD) [1]: 0.048
- 256 (average growth of p423GPD-ROMK2 strain YM256, OD) ([2]; DPM-HIS 5 mM KCl, pH 6.5, 24 hours growth, starting OD 0.01): 0.44
- Signal to noise ratio S/N ([2]; YM256 versus YM194, DPM-HIS 5 mM KCl, pH 6.5, 24 hours): 8.46
- complementation of the growth deficiency of the Δtrk1 Δtrk2 Δtok1 mutant by human Kv1.5 in the presence of activator (human Kv1.5 channel): fully complementing

SMILES: O=C1Cc2cc(CCN3CCN(c4nsc5ccccc45)CC3)c(Cl)cc2N1 [Ziprasidone, 5-(2-[4-(1,2-benzisothiazol-3-yl)piperazino]-ethyl)-6-chloro-1,3-dihydro-2H-indol-2-one]
- Exp. 1 (growth, OD620 nm) [3]: 0.006
- Exp. 2 (growth, OD620 nm) [3]: 0.01
- Exp. 3 (growth, OD620 nm) [3]: 0.012
- Exp. 4 (growth, OD620 nm) [3]: 0.015
- Mean growth (OD620 nm) [3]: 0.01075
- complementation of the growth deficiency of the triple mutant by human HERG1 in the presence of the substance [3]: can no longer complement
- specificity of inhibition of the human HERG1 channel (comparison with wild-type strain) [4]: rather unspecific inhibitors
- Exp. 1 (LacZ luminescence), ASSAY 1 [4, 6]: 55.32
- Exp. 2 (LacZ luminescence), ASSAY 1 [4, 6]: 70.29
- Exp. 3 (LacZ luminescence), ASSAY 1 [4, 6]: 70.3
- Exp. 4 (LacZ luminescence), ASSAY 1 [4, 6]: 77.18
- Mean growth (LacZ luminescence), ASSAY 1 ([4]; 30 μM, wild-type cells, DPM -HIS/-TRP, 0.5 mM CsCl, 24 hours growth, TROPIX kit, ASSAY 1, mean of 4): 68.2725
- Exp. 1 (LacZ luminescence), ASSAY 2 [4, 7]: 62.52
- Exp. 2 (LacZ luminescence), ASSAY 2 [4, 7]: 44.3
- Exp. 3 (LacZ luminescence), ASSAY 2 [4, 7]: 49.71
- Exp. 4 (LacZ luminescence), ASSAY 2 [4, 7]: 51.87
- Mean growth (LacZ luminescence), ASSAY 2 ([4]; 30 μM, wild-type cells, DPM -HIS/-TRP, 0.5 mM CsCl, 24 hours growth, TROPIX kit, ASSAY 2, mean of 4): 52.1
- effect on growth of yeast cells at higher potassium concentrations ([5]; 80 mM KCl, FIG. 10): inhibits the growth
- toxic effect on yeast cells (Saccharomyces cerevisiae) ([5]; growth medium containing 80 mM KCl, FIG. 10): has a toxic effect
- growth OD 620 nm, 5 mM KCl, measurement 1 [5, 8]: 0.943
- growth OD 620 nm, 5 mM KCl, measurement 2 [5, 8]: 0.877
- growth OD 620 nm, 5 mM KCl, measurement 3 [5, 8]: 0.675
- growth OD 620 nm, 5 mM KCl, measurement 4 [5, 8]: 0.701
- 5 mM KCl (average growth, OD 620 nm) ([5]; wild-type cells, DPM, 5 mM KCl, 24 hours growth, starting culture 0.01 OD, average of 4): 0.799
- growth OD 620 nm, 80 mM KCl, measurement 1 [5, 9]: 0.836
- growth OD 620 nm, 80 mM KCl, measurement 2 [5, 9]: 0.681
- growth OD 620 nm, 80 mM KCl, measurement 3 [5, 9]: 0.717
- growth OD 620 nm, 80 mM KCl, measurement 4 [5, 9]: 0.606
- 80 mM KCl (average growth, OD 620 nm) ([5]; wild-type cells, DPM, 80 mM KCl, 24 hours growth, starting culture 0.01 OD, average of 4): 0.7 and 0.71
